Measurements as given in publication PMC10882974 (Environmental Science & Technology, 2024).
≈ marks a conversion by molar mass, not a printed value.

Key:
[1] = system: C. elegans; experiment: toxicokinetics experiment III: effect of E. coli on uptake; type: in vivo, Caenorhabditis elegans; details: Figure 4B-D (experiments III and IV)
Protocol: (§1) In between cycles, the samples were kept on ice. […] Samples were stored at −20 °C until further analysis.
(§2) All parameters and units are summarized in SI A3.

[2] = as above; type: in vivo, Caenorhabditis elegans; details: 10 mg/L, exp III, 10 mg/L fluoxetine, 10 h, read-out: k2NF elimination rate constant of norfluoxetine (converted)
Protocol: as §1, §2

[3] = system: C. elegans; experiment: toxicokinetics experiment I: elimination after 1 h exposure; type: in vivo, Caenorhabditis elegans; details: after 1 h exposure; no E. coli
Protocol: as §1, §2

[4] = as above; type: in vivo, Caenorhabditis elegans; details: whole organism (worm homogenate)
Protocol: as §1, §2

[5] = system: E. coli OP50; experiment: uptake and metabolism of fluoxetine in E. coli OP50 and medium; parameters: species or system Escherichia coli; details: 10 mg/L fluoxetine, E. coli OD600 1.0
[6] = system: C. elegans; experiment: norfluoxetine uptake and coexposure with fluoxetine (SI A5); type: in vivo, Caenorhabditis elegans; details: same exposure concentration; SI A5, Figure S9
Protocol: Alternatively, there could be a concentration-dependent increase in metabolism over time resulting from enzyme induction. This was modeled with an extra metabolism rate constant ke that was included after 10 h (eq 1a and Figure 4C,D).

[7] = system: C. elegans; experiment: chemotaxis assay (diacetyl attractant); type: in vivo, Caenorhabditis elegans
Protocol: (§3) Two quadrants were spiked with 2 μL of an attractant (0.5% diacetyl), and two contained 2 μL water as a control.[30] After 45 min, during which the worms could move freely, the dish was moved to 4 °C to immobilize the worms, and the number of worms in each quadrant was counted. For all data points, the mean and standard deviation were plotted using Graphpad Prism 9.4. The ordinary differential equations and parameters fitted in Matlab were also entered in Graphpad Prism to simulate the internal concentrations over time.

[8] = system: C. elegans; experiment: toxicokinetics experiment IV: long-term exposure of L4 and adult worms; details: 20 mg/L fluoxetine
Protocol: (§4) Three replicates of 1500 pooled C. elegans were used for each time point for each concentration. For experiments with E. coli, the OD600 was kept constant at 0.4.
(§5) C. elegans containing pellets were resuspended in 500 μL of methanol, and 0.6 g of […] ceramic beads (1.4 mm) were added to the vial. The samples were homogenized three times for 20 s using a Minilys homogenizer (Bertin Technologies) at middle speed. In between cycles, the samples were kept on ice. […] The supernatant was transferred to a glass tube, the pellet (including the ceramic beads) was resuspended in 500 μL of methanol, and the homogenization, sonication, and centrifugation cycle was repeated twice more to result in a three-step extraction. The total combined supernatant was concentrated to dryness under a gentle nitrogen stream and redissolved in 500 μL of methanol to a final concentration of the IS of 1 μM. Samples were stored at −20 °C until further analysis.
(§6) A one-compartment model was selected since chemical concentrations could only be measured for the whole organism. […] All parameters and units are summarized in SI A3.
(§7) The kinetic bioconcentration factor[33] was calculated with eq 3, and the ke and kt were only included when applicable to the respective experiment [drawing 4] 3
(§8) Model fitting was performed by adding the ordinary differential equations to the BYOM modeling package version 6.3 (http://www.debtox.info/byom.html) in Matlab R2022b.[34] […] Optimization was performed with the Melder–Mead Simplex Search method, minimizing the minus log-likelihood. […] Model script deviations from the BYOM model can be found in SI A9.

[9] = as above; details: whole organism (worm homogenate), iv, 20 mg/L, k2NF elimination rate constant of norfluoxetine, exp IV, with E. coli, 20 mg/L fluoxetine, 48 h
Protocol: as §4, §5, §6, §7, §8

[10] = system: C. elegans; experiment: general activity test (WMicrotracker); type: in vivo, Caenorhabditis elegans
Protocol: as §3, with “counted. The general activity was measured with a WMicrotracker from Phylumtech. This system measured the collective movement in multiwell plates by detecting the number of interruptions of an infrared beam over time. The total number of interruptions over a 30 min period was calculated with the Wmicrotracker software. […]” for “counted.”

[11] = system: C. elegans; experiment: calculated excretion rate of norfluoxetine from exposure medium concentrations (experiments III and IV, SI A6); type: in vivo, Caenorhabditis elegans
Excerpt: Norfluoxetine was also detected in the exposure medium for experiments III and IV and increased over time, indicating the elimination of norfluoxetine. […] However, this does allow for a calculation of the excretion rate of norfluoxetine, as shown in SI A6. […] This could be explained by the saturation of binding sites for norfluoxetine at these higher concentrations, but this still requires further investigation.

[12] = at 10 mg/L, p < 0.01 Bonferroni post hoc

Question: For NCCC(Oc1ccc(C(F)(F)F)cc1)c1ccccc1 (stereo not drawn) [norfluoxetine], which “elimination rate (k2NF)” value [1] is on record?
Answer: around 0.12 /h

Question: What about the “transformation rate kt (norfluoxetine formation)” value [1] of the same compound?
Answer: around 0.06 1/h

Question: And the k el ([2]; whole organism (homogenate of pooled worms), no E. coli)?
Answer: 2.78e-08 s⁻¹

Question: And the k el ([2]; whole organism (worm homogenate), with E. coli, k1, k2FLX, k2NF, kt constrained (eq 1b))?
Answer: 2.78e-08 s⁻¹

Question: And the k el ([2]; whole organism (worm homogenate), with E. coli, no constraint)?
Answer: 3.33e-05 s⁻¹

Question: And the “elimination over time after transfer to clean medium” value [3]?
Answer: still present in small amounts after 24 h

Question: What about the k el ([4]; 1 h exposure (fluoxetine 0.5, 5, 20 mg/L; norfluoxetine 20 mg/L), then clean medium, no E. coli, read-out: k2sum elimination rate constant (+95% CI) (converted)) of the same compound?
Answer: 0.000375 s⁻¹

Question: What about the k el ([4]; 1 h exposure, then clean medium, slow phase after 1 h, no E. coli, read-out: k2slow elimination rate constant (+95% CI) (converted)) of the same compound?
Answer: 2.36e-05 s⁻¹

Question: What about the k el ([4]; calculated from k2sum and k2slow, read-out: k2fast elimination rate constant (converted)) of the same compound?
Answer: 0.000351 s⁻¹

Question: And the “norfluoxetine concentrations in medium and bacteria exposed to fluoxetine” value [5]?
Answer: negligible

Question: What about the “internal concentrations of norfluoxetine compared to fluoxetine” value [6] of the same compound?
Answer: around 70%

Question: What about the “chemotaxis index compared to fluoxetine” value [7, 12] of the same compound?
Answer: significantly lower

Question: And the EC50 ([7]; nominal concentrations, 72 h exposure from L1, S medium with E. coli OD600 0.4, read-out: EC50 for chemotaxis (+95% confidence intervals))?
Answer: 14.2 µg/mL (≈ 48.2 µM)

Question: And the “norfluoxetine internal concentration relative to fluoxetine at steady state” value ([8]; Figure 4D)?
Answer: around half of the fluoxetine concentrations

Question: What about the “norfluoxetine internal concentration at steady state” value ([8]; steady state after 10 h) of the same compound?
Answer: approximately 80 mg/kgnem

Question: And the k el [9]?
Answer: 3.06e-05 s⁻¹

Question: What about the “activity compared to fluoxetine” value [10, 12] of the same compound?
Answer: significantly lower

Question: What about the EC50 ([10]; nominal concentrations, S medium with E. coli OD600 0.4, 24 h exposure, read-out: EC50 for the effect on activity (+95% confidence intervals)) of the same compound?
Answer: 10.1 µg/mL (≈ 34.2 µM)

Question: And the “calculated excretion rate of norfluoxetine” value ([11]; 20 mg/L of fluoxetine exposure)?
Answer: around 0.5 /h

Question: What about the “calculated excretion rate of norfluoxetine, increased value” ([11]; 20 mg/L of fluoxetine exposure, value it increased to) of the same compound?
Answer: 0.83

Question: What about the “calculated excretion rate of norfluoxetine” value ([11]; 0.5 and 10 mg/L of fluoxetine) of the same compound?
Answer: around 0.1 /h
